Measured values published in ChEMBL document CHEMBL3885861, “Open TG-GATES”.

Organism: Rattus norvegicus
Assay: Open TG-GATES - Regimen: Single
Type: toxicity, organism-based, Sprague-Dawley
Parameters: regimen Single, gender Male, age 6 weeks
Conditions: in vivo, po, 100 mg/kg, route gavage, dose level High; for APTT / Bas / Eos / Fbg / Hb / Ht / Lym / MCH / MCHC / MCV / Mono / Neu / PT / Plat / RBC / Ret / WBC: tissue Blood; for KIDNEY_L / KIDNEY_R / KIDNEY_TOTAL: tissue Kidney; for LIVER: tissue Liver; for A/G / ALP / ALT / AST / BUN / CRE / Ca / Cl / DBIL / GLC / IP / K / LDH / Na / PL / RALB / TBIL / TC / TG / TP / gamma-GTP: tissue Plasma

## CCCc1cc(=O)[nH]c(=S)[nH]1 [PROPYLTHIOURACIL]
3 h
  TERMINAL_BW: 180.9 g
  APTT: 15.7 s
  Bas: 0%
  Eos: 0.6%
  Fbg: 210 mg/dL
  Hb: 13.3 g/dL
  Ht: 39.7%
  Lym: 82.6%
  MCH: 21.7 pg
  MCHC: 33.3%
  MCV: 65.1 fL
  Mono: 5.8%
  Neu: 10.8%
  PT: 12.9 s
  Plat: 99.3 x10_4/uL
  RBC: 611.2 x10_4/ul
  Ret: 9.7%
  WBC: 96.7 x10_2/uL
  KIDNEY_L: 0.8 g
  KIDNEY_R: 0.8 g
  KIDNEY_TOTAL: 1.6 g
  LIVER: 8.3 g
  A/G: 1.9
  ALP: 858.8 IU/L
  ALT: 38 IU/L
  AST: 70.2 IU/L
  BUN: 12.6 mg/dL
  CRE: 0.4 mg/dL
  Ca: 10.9 mg/dL
  Cl: 105 meq/L
  DBIL: 0.03 mg/dL
  GLC: 189.4 mg/dL
  IP: 10.9 mg/dL
  K: 4.2 meq/L
  LDH: 141 IU/L
  Na: 138.4 meq/L
  PL: 138 mg/dL
  RALB: 3.7 g/dL
  TBIL: 0.3 mg/dL
  TC: 83.4 mg/dL
  TG: 27 mg/dL
  TP: 5.6 g/dL
  gamma-GTP: 2 IU/L
6 h
  TERMINAL_BW: 176.2 g
  APTT: 16.5 s
  Bas: 0%
  Eos: 0.6%
  Fbg: 213.2 mg/dL
  Hb: 13.2 g/dL
  Ht: 39.9%
  Lym: 76%
  MCH: 21.6 pg
  MCHC: 33.2%
  MCV: 65 fL
  Mono: 5.2%
  Neu: 18.2%
  PT: 12.8 s
  Plat: 106.5 x10_4/uL
  RBC: 612.8 x10_4/ul
  Ret: 9.9%
  WBC: 77.1 x10_2/uL
  KIDNEY_L: 0.8 g
  KIDNEY_R: 0.8 g
  KIDNEY_TOTAL: 1.6 g
  LIVER: 7.5 g
  A/G: 2.1
  ALP: 762.4 IU/L
  ALT: 27.8 IU/L
  AST: 64 IU/L
  BUN: 11.4 mg/dL
  CRE: 0.4 mg/dL
  Ca: 11 mg/dL
  Cl: 105.4 meq/L
  DBIL: 0.048 mg/dL
  GLC: 186.8 mg/dL
  IP: 10.5 mg/dL
  K: 4.6 meq/L
  LDH: 139.2 IU/L
  Na: 139 meq/L
  PL: 136.6 mg/dL
  RALB: 3.8 g/dL
  TBIL: 0.4 mg/dL
  TC: 78.8 mg/dL
  TG: 23 mg/dL
  TP: 5.6 g/dL
  gamma-GTP: 2 IU/L
9 h
  TERMINAL_BW: 173.6 g
  APTT: 15.9 s
  Bas: 0%
  Eos: 1.2%
  Fbg: 207.4 mg/dL
  Hb: 12.9 g/dL
  Ht: 38.8%
  Lym: 73.6%
  MCH: 21.7 pg
  MCHC: 33.3%
  MCV: 65.1 fL
  Mono: 8.2%
  Neu: 17.2%
  PT: 12.8 s
  Plat: 110.6 x10_4/uL
  RBC: 597.2 x10_4/ul
  Ret: 9.9%
  WBC: 65.2 x10_2/uL
  KIDNEY_L: 0.8 g
  KIDNEY_R: 0.8 g
  KIDNEY_TOTAL: 1.6 g
  LIVER: 7 g
  A/G: 1.9
  ALP: 879.2 IU/L
  ALT: 31.2 IU/L
  AST: 68 IU/L
  BUN: 13.6 mg/dL
  CRE: 0.4 mg/dL
  Ca: 10.8 mg/dL
  Cl: 108 meq/L
  DBIL: 0.008 mg/dL
  GLC: 186.6 mg/dL
  IP: 10.4 mg/dL
  K: 4.8 meq/L
  LDH: 176.8 IU/L
  Na: 139.4 meq/L
  PL: 141.4 mg/dL
  RALB: 3.6 g/dL
  TBIL: 0.4 mg/dL
  TC: 83.2 mg/dL
  TG: 28 mg/dL
  TP: 5.5 g/dL
  gamma-GTP: 1.4 IU/L
24 h
  TERMINAL_BW: 186.8 g
  APTT: 15.6 s
  Bas: 0%
  Eos: 1%
  Fbg: 217 mg/dL
  Hb: 13.1 g/dL
  Ht: 39.5%
  Lym: 77.6%
  MCH: 21.7 pg
  MCHC: 33%
  MCV: 65.7 fL
  Mono: 7.2%
  Neu: 14.6%
  PT: 12.2 s
  Plat: 108.5 x10_4/uL
  RBC: 601.8 x10_4/ul
  Ret: 9.3%
  WBC: 115.2 x10_2/uL
  KIDNEY_L: 0.9 g
  KIDNEY_R: 0.9 g
  KIDNEY_TOTAL: 1.7 g
  LIVER: 9.9 g
  A/G: 1.8
  ALP: 1169.8 IU/L
  ALT: 42.6 IU/L
  AST: 69.2 IU/L
  BUN: 17.4 mg/dL
  CRE: 0.5 mg/dL
  Ca: 11.2 mg/dL
  Cl: 106.8 meq/L
  DBIL: 0.014 mg/dL
  GLC: 175.2 mg/dL
  IP: 8.1 mg/dL
  K: 5 meq/L
  LDH: 192.4 IU/L
  Na: 139.8 meq/L
  PL: 170.6 mg/dL
  RALB: 3.7 g/dL
  TBIL: 0.3 mg/dL
  TC: 97.8 mg/dL
  TG: 107 mg/dL
  TP: 5.7 g/dL
  gamma-GTP: 1.2 IU/L
